# Patent publication US20250064803A1, “DOSAGE REGIMENS FOR PARP7 INHIBITORS” (Ribon Therapeutics, Inc., priority 2021, published 2025)
# Where “and” joins values, the source holds several entries; their conditions need not be identical. Identical values can stand only once. Entries after “also recorded” stand apart in the source; their conditions may differ.
# How the values were obtained:
# [1] = Relative bioavailability PK of micronized vs nonmicronized 100 mg tablets in Phase 1 patients; type: in vivo, human
# Protocol: Assessments conducted after C1D1 will be the same as described for patients in the dose escalation cohorts following Schedule 2. Based on emerging PK data, additional Relative Bioavailability Cohorts at additional dose levels may be explored.
# Patients enrolled in the Relative Bioavailability Cohort(s) will have an additional visit 7 days (±3 days) prior to C1D1. […] On C1D-7 patients will be attached to a Holter monitor that will run continuously for ˜24 hours (i.e., until patients return on the following day for the 24-hr PK sample collection on C1D-6). […] On C1D1, patients will be attached to a Holter monitor that will run continuously for ˜24 hours (i.e., immediately before the study drug dose on C1D2). […] Samples collected after C1D2 are not considered part of the relative Bioavailability data set.
# Plasma samples were collected at 0.5, 1, 2, 4, 6, 8, 12 and 24 hours post dose. […] Plasma samples were collected at 0.5, 1, 2, 4, 6, 8, 12 and 24 hours post dose.
# [2] = Particle size by laser diffraction (USP 42 <429>, Malvern Mastersizer 3000); type: physicochemical
# Source text: The compound of Formula I can be prepared in micronized and nonmicronized forms. In some embodiments, the compound of Formula I used in the dosage forms of the invention is micronized. The micronized drug substance can be prepared, for example, by jet milling. Particle size can be measured by laser diffraction methods (e.g., USP 42 <429> Light Diffraction Measurement of Particle Size). Nonmicronized compound can have a particle diameter size [d90] of about 30 μm or larger. In some embodiments, nonmicronized compound has a particle diameter size [d90] of about 30 to about 500 μm, about 50 to about 400 μm, about 100 to about 350 μm, or about 150 to about 300 μm.
# Micronized batches of the compound of Formula I were prepared by jet milling using a nitrogen gas feed. The nonmicronized starting material was prepared in a manner similar to the process for preparing crystalline compound of Formula I described in U.S. Pat. No. 10,550,105. Particle size was measured by laser diffraction according to USP 42 <429> using a Malvern Mastersizer 3000 equipped with a Hydro MV wet dispersion sample unit. Particle size diameters [d90] for two different lots were measured as 10.851 and 8.715 μm, respectively.
# [3] = First-in-human Phase 1 dose escalation study: treatment-related adverse events, safety; type: in vivo
# Source text: This protocol is a first-in-human, Phase 1, multi-center, open-label, study designed to evaluate the safety profile, including any dose-limiting toxicities (DLTs), and (maximum tolerated dose) MTD of the compound of Formula I administered as a single agent PO and establish the recommended phase 2 dose (RP2D) of the compound of Formula I. The study has a Dose Escalation Phase, which includes a relative bioavailability assessment, followed by a Dose Expansion Phase in patients with selected tumor types.
# In the Dose Escalation Phase of the study, patients with any histologically- or cytologically-confirmed solid tumor type (which may include “solid” lymphoma [e.g., mantle cell]) that is refractory to standard therapy and for whom no therapy exists that would be curative or might provide clinical benefit and therefore for whom experimental therapy is a reasonable option are eligible. In the Dose Expansion Phase of the study, the RP2D will be investigated in the following cancer types: squamous cell carcinoma of the lung (SCCL), head and neck squamous cell carcinoma (HNSCC), hormone receptor positive (HR+) breast cancer, and PARP7 amplified cancer.
# Two schedules are employed in the Dose Escalation Phase: • Schedule 1 will examine a 21-day cycle with 14 days of the compound of Formula I administered at doses of 25 mg, 50 mg, 100 mg, 200 mg, 300 mg, and 500 mg BID followed by a rest period. • Schedule 2 will examine a 21-day continuous dosing cycle at doses of 100 mg, 200 mg, 300 mg, and 400 mg BID.
# The most frequent compound of Formula I treatment-related AEs in the ongoing Phase 1 escalation study are dysgeusia or taste disorder (36%), decreased appetite (15%), fatigue (14%), nausea (12%), and anemia, constipation, diarrhea and decreased weight (10%) each.
# Overall, the safety profile of the compound of Formula I is considered manageable at the RP2D for combination with pembrolizumab.
# [4] = Plasma pharmacokinetics after oral tablets and capsules in male Beagle dogs; type: in vivo; settings: for AUC / Cmax: male, Beagle, dog, plasma, po, 100 mg
# Source text: The objective of this study was to determine the plasma pharmacokinetic profiles of the compound of Formula I in male Beagle dogs after oral administration and to assess the exposure of tablets and capsules formulations.
# Male Beagle dogs were purchased from Jiangsu Johnsen Bioresource CO., Ltd. The animals were 1-2.5 years old on the dosing day. All animals were housed in a 12-hour light/12-hour dark cycle environment. Animals for oral (PO) groups were fasted overnight prior to dosing and were fed approximately 2 hours after dosing. This study was approved by the Pharmaron Institutional Animal Care and Use Committee.
# The compound of Formula I was used for the dose formulation and standard stock solution preparation. […] For the animals in PO groups, pentagastrin ([…], i.m.) was administrated 20 minutes before dosing PO formulation and 1.5 hours after the first pentagastrin dosing. The dosing volume was 0.024 mL/kg, the concentration was […] in DMSO/1 N NaOH/PBS. The dosing volume, detailed dosing time of pentagastrin was recorded. 10 mL of 0.001 N HCl was used to wash the gavage catheter for each animal.
# Blood samples (0.5 mL) were collected from each animal via jugular veins. These blood samples were placed into tubes containing dipotassium ethylenediaminetetraacetic acid and then centrifuged at 2000 g for 10 minutes at 4° C. to produce plasma. All samples were stored at −75±15° C. until analysis.
# Compound of Formula I was prepared in dimethyl sulfoxide with vortex at 1 mg/mL (free form) as standard stock solution. Calibration standard working solutions were prepared at concentrations of 5, 10, 20, 50, 100, 500, 1000, 5000, 10000 and 20000 ng/mL by serial dilution of the standard stock solution by 50% acetonitrile in water. […] These QC samples were prepared on the day of analysis in the same way as calibration standards.
# 5 μL of each calibration standard working solution (5, 10, 20, 50, 100, 500, 1000, 5000, 10000 and 20000 ng/mL) was added to 50 μL of blank Beagle Dog plasma to achieve calibration standards of 0.5-2000 ng/mL (0.5, 1, 2, 5, 10, 50, 100, 500, 1000, 2000 ng/mL) in a total volume of 55 μL. […] These QC samples were prepared on the day of analysis in the same way as calibration standards. 55 μL of standards, 55 μL of QC samples or 55 μL of unknown samples (50 μL of plasma sample with 5 μL 50% acetonitrile in water) were mixed with 200 μL of acetonitrile containing IS (internal standard, dexamethasone) to precipitate proteins. Then the samples were vortexed for 30 sec.
# Data Acquisition was Performed by Sciex Analyst 1.6.3 Software (AB Sciex, Forster City, CA). Pharmacokinetic parameters were calculated by non-compartmental analysis (Phoenix TM WinNonlin® 6.1). The linear trapezoidal algorithm was used for AUC calculation.
# [5] = cited from earlier work
# [6] = patients, ongoing Phase 1 escalation study
# [7] = 100 mg capsule, micronized vs nonmicronized
# [8] = particle size d90:d50 18:5 μm (micronized)
# [9] = particle size d90:d50 228:108 μm (nonmicronized)
# [10] = NSCLC patients, second or third line, Keynote-010 (n=682)
compound,measurement,setting,value
"C[C@@H](COCCC(=O)N1CCN(c2ncc(C(F)(F)F)cn2)CC1)Nc1cn[nH]c(=O)c1C(F)(F)F [compound of Formula I, 5-[[(2S)-1-(3-oxo-3-[4-[5-(trifluoromethyl)pyrimidin-2-yl]piperazin-1-yl]propoxy)propan-2-yl]amino]-4-(trifluoromethyl)-2,3-dihydropyridazin-3-one]","increase in mean AUC, micronized vs nonmicronized tablet",[1],about 1.5 fold
same,"increase in mean Cmax, micronized vs nonmicronized tablet",[1],about 2.4 fold
same,particle diameter size d[90],[2]; micronized compound (jet milled),10.851 μm and 8.715 μm
same,particle diameter size d[90],[2]; nonmicronized compound,228.474 μm
same,safety profile / tolerability,"[3]; 50 patients, first-in-human Phase 1 trial",favorable safety profile; also recorded: well tolerated
same,treatment-related AE: anemia,[3]; [6],10%
same,treatment-related AE: constipation,[3]; [6],10%
same,treatment-related AE: decreased appetite,[3]; [6],15%
same,treatment-related AE: decreased weight,[3]; [6],10%
same,treatment-related AE: diarrhea,[3]; [6],10%
same,treatment-related AE: dysgeusia or taste disorder,[3]; [6],36%
same,treatment-related AE: fatigue,[3]; [6],14%
same,treatment-related AE: nausea,[3]; [6],12%
same,increase in AUC by micronization,[4]; [7],2.8 fold
same,increase in Cmax by micronization,[4]; [7],4.7 fold
same,"exposure, micronized capsules (Group E) versus nonmicronized capsules (Group D)",[4]; 100 mg/dog PO,much higher
same,oral exposure versus dose level,"[4]; Groups A, B and C, tablets 25, 50, 100 mg/dog","increased with the dose level, though not linear"
same,AUC,[4]; [8],9560 ng·h/mL
same,Cmax,[4]; [8],1670 ng/mL
same,AUC,[4]; [9],3400 ng·h/mL
same,Cmax,[4]; [9],356 ng/mL
"pembrolizumab: humanized antibody that binds to human PD-1, approved by the U.S. FDA",adverse reactions leading to discontinuation,[5]; [10],8%
same,pneumonitis leading to discontinuation (most common),[5]; [10],1.8%
same,"most frequent treatment-related AEs (fatigue, musculoskeletal pain, decreased appetite, pruritus, diarrhea, nausea, rash, pyrexia, cough, dyspnea, constipation, pain, abdominal pain), reported in",[5]; single agent (Merck 2021),> 20%
